Paper PMC2943923, “Human Integrin α3β1 Regulates TLR2 Recognition of Lipopeptides from Endosomal Compartments” (PLoS ONE, 2010)

How the values were obtained:
U937 macrophages [1] = experiment: IL-6 secretion (ELISA) of U937 macrophages stimulated with Pam3CSK4; type: cell-based, human; settings: 100 ng/ml Pam3CSK4, 6 hours; for decrease in Pam3CSK4-induced IL-6 secretion relative to control cells: 100 ng/ml concanamycin A, p = 0.037; for decrease in Pam3CSK4-induced IL-6 secretion relative to control cells / mean secretion of IL-6 by inhibitor-treated cells: 500 µM bafilomycin A1, 1 µM monensin, 5 µM CPZ; for mean secretion of IL-6 by inhibitor-treated cells: inhibitor added 30 minutes before: 100 ng/ml concanamycin A
Method: (§1) The human monocyte cell line U937 (American Type Culture Collection) was maintained in RPMI (Mediatech) with 10% FBS and 1% penicillin-streptomycin. For all experiments, U937 monocytes were differentiated at a concentration of 5×10^5 cells per well in 24-well plates with 100 nM phorbol 12-myristate 13-acetate (Sigma) for 48 hours. All experiments were performed under serum-free conditions, unless otherwise noted.
The TLR2/1 triacylated lipid ligand, Pam3CSK4 (Invivogen), biotinylated Pam3CSK4 (Axxora) or Pam3CSK4-rhodamine (Invivogen) were resuspended in endotoxin-free water. Pam3CSK4 was used at a concentration of 100 ng/ml to stimulate macrophages, and Pam3CSK4-biotin and Pam3CSK4-rhodamine were used at indicated concentrations.
Inhibition of endosomal acidification was achieved using inhibitors of V-ATPase, concanamycin A (100 ng/ml) and bafilomycin A1 (500 µM) (Sigma) or the ionophore monensin (1 µM) (Sigma). Clathrin-mediated endocytosis was inhibited with chlorpromazine (CPZ) (5 µM) (Sigma). Concentrations were chosen based on prior studies, [61]. All inhibitors were added 30 minutes prior to stimulation. For CPZ experiments, the media was replaced at the time of stimulation to remove CPZ. […]
Supernatants were collected 6 hours post stimulation. IL-6 and TNF-α were measured using the DuoSet enzyme linked immunoabsorbent assay (ELISA) kit (R&D systems) following the manufacturer's instructions.

U937 macrophages [2] = experiment: IL-6 secretion (ELISA) of U937 macrophages stimulated with B. burgdorferi; type: cell-based, human; settings: for mean secretion of IL-6 by inhibitor-treated cells: B. burgdorferi MOI 10, 6 hours, serum-free, three experiments
Method: as §1
Clonal isolates of infectious, low passage B. burgdorferi sensu stricto (strain N40, clone D10E9) were cultured in Barbour-Stoenner-Kelley (BSK II) medium at 37°C as described, and used at multiplicity of infection (MOI) 10∶1.
(§2) Inhibition of endosomal acidification was achieved using inhibitors of V-ATPase, concanamycin A (100 ng/ml) and bafilomycin A1 (500 µM) (Sigma) or the ionophore monensin (1 µM) (Sigma). Clathrin-mediated endocytosis was inhibited with chlorpromazine (CPZ) (5 µM) (Sigma). Concentrations were chosen based on prior studies, [61]. All inhibitors were added 30 minutes prior to stimulation. For CPZ experiments, the media was replaced at the time of stimulation to remove CPZ.
For blocking antibody experiments, U937 macrophages were incubated for 2 hours prior to stimulation with 50 µg/ml of control mouse ascites fluid (NS-1 murine myeloma, Sigma-Aldrich) or anti-integrin α3β1 monoclonal antibody (P1B5, Millipore).
(§3) Supernatants were collected 6 hours post stimulation.

U937 macrophages [3] = experiment: IL-6 secretion of U937 macrophages stimulated with TNF-α (inhibitor control); type: cell-based, human; settings: pre-treatment with inhibitor, stimulation with TNF-α; data not shown
Method: as §2, §3

U937 macrophages [4] = experiment: TNF-α secretion (ELISA) of U937 macrophages stimulated with Pam3CSK4; type: cell-based, human; settings: Fig S5A; 100 ng/ml concanamycin A or 1 µM monensin; 100 ng/ml Pam3CSK4, 6 hours, serum-free
Method: as §2, §3

U937 macrophages [5] = experiment: IFN-α1 transcript (qRT-PCR) in Pam3CSK4-stimulated U937 macrophages; type: cell-based, human; settings: 100 ng/ml Pam3CSK4, serum-free; for reduction of IFN-α1 transcript levels: 100 ng/ml concanamycin A or 1 µM monensin, 6 and 16 hours, p = 0.037
Method: as §2
Cells were collected at 6 hours post infection unless otherwise indicated. RNA was extracted using TRIzol (Invitrogen) following the manufacturer's instructions. RNA was resuspended in water containing RNaseOut (Invitrogen) and treated with DNaseI using the Turbo DNA-free kit (Ambion). cDNA was synthesized using the ImPromII kit (Promega) following the manufacturer's instructions. Quantification of cDNA was performed by quantitative RT-PCR (iCycler, BioRad) using the iQ SYBR Green Supermix (BioRad). Cycling parameters were 95°C for 15 minutes followed by 40 cycles of 95°C for 30 seconds, 60°C for 30 seconds, and 72°C for 30 seconds. Primers used to measure IL-6, TNF-α, and β-actin were published previously, [62]. Human integrin α3 primers, forward: 5′-[…]-3′, reverse 5′-[…]-3′ were generated by Primer Bank, ID# 6006011a1. Human integrin αv primers, forward: 5′-[…]-3′, reverse 5′-[…]-3′ were generated by Primer Bank, ID# 4504763a2. Human integrin α5 primers, forward: 5′-[…]-3′, reverse 5′-[…]-3′ were generated by Primer Bank, ID# 4504751a3. Human integrin α6 primers, forward: 5′-TCGGCACAGCAACCTTGAA-3′, reverse 5′-[…]-3′ were generated by Primer Bank, ID# 30046796a2. Human TLR2 primers, forward: 5′-[…]-3′, reverse 5′- […]-3′. Human TLR4 primers, forward: 5′-[…]-3′, reverse 5′-[…]-3′ were generated by Primer Bank, ID# 19924149a1. Human TLR7 primers, forward: 5′-[…]-3′, reverse 5′-[…]-3′. Human TLR9 primers, forward: 5′-GCGACCAGGCTCCCGAAGG-3′, reverse 5′-[…]-3′. Human IFN-α1 primers, forward: 5′-[…]-3′, reverse: 5′-[…]-3′ were generated by Primer Bank, ID# 13128950a1 [63], [64]. […]

U937 macrophages [6] = experiment: IL-6 transcript (qRT-PCR) in Pam3CSK4-stimulated U937 macrophages; type: cell-based, human; settings: 1 µM monensin; 100 ng/ml Pam3CSK4, 6 hours, serum-free; normalized to β-actin (Fig. S2)
Method: as §2
(§4) Cells were collected at 6 hours post infection unless otherwise indicated. RNA was extracted using TRIzol (Invitrogen) following the manufacturer's instructions. RNA was resuspended in water containing RNaseOut (Invitrogen) and treated with DNaseI using the Turbo DNA-free kit (Ambion). cDNA was synthesized using the ImPromII kit (Promega) following the manufacturer's instructions. Quantification of cDNA was performed by quantitative RT-PCR (iCycler, BioRad) using the iQ SYBR Green Supermix (BioRad). Cycling parameters were 95°C for 15 minutes followed by 40 cycles of 95°C for 30 seconds, 60°C for 30 seconds, and 72°C for 30 seconds. Primers used to measure IL-6, TNF-α, and β-actin were published previously, [62]. Human integrin α3 primers, forward: 5′-[…]-3′, reverse 5′-[…]-3′ were generated by Primer Bank, ID# 6006011a1. […]

U937 macrophages [7] = experiment: IL-6 transcript (qRT-PCR) in B. burgdorferi-stimulated U937 macrophages; type: cell-based, human; settings: 1 µM monensin; B. burgdorferi MOI 10, 6 hours, serum-free (Fig. S4)
Method: as §2, §4

U937 macrophages [8] = experiment: IFN-β transcript (qRT-PCR) in Pam3CSK4-stimulated U937 macrophages; type: cell-based, human; settings: 100 ng/ml Pam3CSK4, serum-free, 6 hrs or 16 hrs post stimulation
Method: Cells were collected at 6 hours post infection unless otherwise indicated. RNA was extracted using TRIzol (Invitrogen) following the manufacturer's instructions. RNA was resuspended in water containing RNaseOut (Invitrogen) and treated with DNaseI using the Turbo DNA-free kit (Ambion). cDNA was synthesized using the ImPromII kit (Promega) following the manufacturer's instructions. Quantification of cDNA was performed by quantitative RT-PCR (iCycler, BioRad) using the iQ SYBR Green Supermix (BioRad). Cycling parameters were 95°C for 15 minutes followed by 40 cycles of 95°C for 30 seconds, 60°C for 30 seconds, and 72°C for 30 seconds. Primers used to measure IL-6, TNF-α, and β-actin were published previously, [62]. Human integrin α3 primers, forward: 5′-[…]-3′, reverse 5′-[…]-3′ were generated by Primer Bank, ID# 6006011a1. Human integrin αv primers, forward: 5′-[…]-3′, reverse 5′-[…]-3′ were generated by Primer Bank, ID# 4504763a2. Human integrin α5 primers, forward: 5′-[…]-3′, reverse 5′-[…]-3′ were generated by Primer Bank, ID# 4504751a3. Human integrin α6 primers, forward: 5′-TCGGCACAGCAACCTTGAA-3′, reverse 5′-[…]-3′ were generated by Primer Bank, ID# 30046796a2. Human TLR2 primers, forward: 5′-[…]-3′, reverse 5′- […]-3′. Human TLR4 primers, forward: 5′-[…]-3′, reverse 5′-[…]-3′ were generated by Primer Bank, ID# 19924149a1. Human TLR7 primers, forward: 5′-[…]-3′, reverse 5′-[…]-3′. […]

[9] = system: murine bone marrow derived macrophages; experiment: IFN-β induction in murine bone marrow derived macrophages; type: cell-based; settings: data not shown
[10] = Fig 5, serum-free, three experiments
[11] = 100 ng/ml concanamycin A, 500 µM bafilomycin A1, 1 µM monensin
[12] = Homo sapiens, U-937, 6 h, read-out: inhibition of B. burgdorferi induction of IL-6

Row | Compound | decrease in Pam3CSK4-induced IL-6 secretion relative to control cells (U937 macrophages [1]; serum-free) [%] | mean secretion of IL-6 by inhibitor-treated cells (U937 macrophages [1]; [10]) [pg/mL] | mean secretion of IL-6 by inhibitor-treated cells (U937 macrophages [2]; [11]) [pg/mL] | change in secretion of IL-6 in response to TNF-α (U937 macrophages [3]) | mean secretion of TNF-α by inhibitor-treated cells (U937 macrophages [4]) [pg/mL] | reduction of IFN-α1 transcript levels (U937 macrophages [5]) [%] | other results
1 | CN(C)CCCN1c2ccccc2Sc2ccc(Cl)cc21 [CPZ, chlorpromazine] | 49 | 340 |  |  |  |  | 
2 | CO/C1=C\C(C)=C\[C@@H](C)[C@@H](O)[C@@H](C)C/C(C)=C/C=C/[C@H](OC)[C@@H]([C@@H](C)[C@@H](O)[C@H](C)[C@@]2(O)C[C@@H](O)[C@H](C)[C@@H](C(C)C)O2)OC1=O [bafilomycin A1] | 37 | 430 | 680 | no significant change |  |  | inhibition at 500 µM (U937 macrophages [2]; [12]): 30%
3 | C/C=C/[C@H]1O[C@@](O)([C@@H](C)[C@H](O)[C@H](C)[C@H]2OC(=O)/C(OC)=C/C(C)=C/[C@@H](C)[C@@H](O)[C@@H](CC)[C@@H](O)[C@H](C)C/C(C)=C/C=C/[C@@H]2OC)C[C@@H](O[C@H]2C[C@@H](O)[C@H](OC(N)=O)[C@@H](C)O2)[C@@H]1C [concanamycin A] | 53 | 320 | 437 | no significant change | 928 | 84 | inhibition of B. burgdorferi induction of IL-6 (U937 macrophages [2]; 100 ng/ml concanamycin A, 500 µM bafilomycin A1, 1 µM monensin, MOI 10, 6 hours, p = 0.037): 56%
4 | CC[C@@]1([C@@H]2O[C@@H]([C@H]3O[C@@](O)(CO)[C@H](C)C[C@@H]3C)C[C@@H]2C)CC[C@H]([C@]2(C)CC[C@]3(C[C@H](O)[C@@H](C)[C@@H]([C@@H](C)[C@@H](OC)[C@H](C)C(=O)O)O3)O2)O1 [monensin] | 38 | 420 | 567 | decrease in IL-6 secretion | 567 | 88 | reduction of IL-6 transcript (U937 macrophages [6]): 32%; inhibition at 1 µM (U937 macrophages [2]; [12]): 40%; reduction of IL-6 transcript (U937 macrophages [7]): 51%
5 | palmitoyl-3-Cys-Ser-(Lys)4 [Pam3CSK4, synthetic TLR2/1 triacylated lipid ligand, prototypical bacterial lipopeptide (Invivogen)] |  |  |  |  |  |  | mean secretion of IL-6 (U937 macrophages [1]; Fig 1A, cells transduced with control shRNA, serum-free, mean of three independent experiments): 350 pg/mL; mean secretion of IL-6 (U937 macrophages [1]; Fig 2A, in the presence of 1% FBS, three experiments): 975 pg/mL; mean secretion of IL-6 (U937 macrophages [1]; Fig 2A, serum-free, three experiments): 1,048 pg/ml; mean secretion of IL-6 (U937 macrophages [1]; Fig 2B, control shRNA cells, 1% FBS): 974 pg/mL; mean secretion of IL-6 (U937 macrophages [1]; Fig 2B, control shRNA cells, serum-free): 1,048 pg/ml; mean secretion of IL-6 (U937 macrophages [1]; Fig 5, control cells (no inhibitor), serum-free, three experiments): 670 pg/mL; induction of IFN-β (U937 macrophages [8]): did not observe any induction; induction of IFN-α1 (interferon response) (U937 macrophages [5]): induces an interferon response; induction of IFN-β [9]: confirm Pam3CSK4-induced IFN-β
